{"source": "patent US20250186403A1", "about": "(ARIZONA BOARD OF REGENTS ON BEHALF OF THE UNIVERSITY OF …, priority 2022, published 2025)", "key": {"Cne cells": {"system": "Cne cells", "assay": "Checkerboard assay with known antifungals", "assay_type": "cell-based, Cryptococcus neoformans", "details": "for MIC: Cryptococcus neoformans, read-out: MIC Alone", "procedure": "After adding Cne cells, the plates were incubated for 48 h. Well contents were mixed by pipette, and absorbance was read at 630 nm. […] Based on the FIC, the combinatorial effects are decided as in Table 2."}, "[1]": {"biological_target": "Split-NanoLuc-Prp8 intein protein (Cryptococcus gattii, UniProt E6R027)", "sequence (E6R027 entry or part of it)": "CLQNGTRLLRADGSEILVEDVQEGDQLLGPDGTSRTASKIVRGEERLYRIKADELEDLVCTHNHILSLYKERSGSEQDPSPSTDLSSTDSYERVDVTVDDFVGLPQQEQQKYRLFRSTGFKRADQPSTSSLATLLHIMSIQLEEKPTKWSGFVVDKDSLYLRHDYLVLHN", "assay": "Split nanoluciferase-Prp8 intein splicing assay", "assay_type": "biochemical", "details": "1 nM protein, 100 µM TCEP, 24 h; read-out: IC50, Prp8-NanoBit splicing"}, "[2]": {"details": "single drug, ≥90% reduction of absorbance at 630 nm, 48 h"}}, "data": [{"compound": "C[C@@H](c1ncncc1F)[C@](O)(Cn1cncn1)c1ccc(F)cc1F", "note": "[Voriconazole]", "values": [{"measurement": "MIC", "setting": "Cne cells; [2]", "result": 0.05, "unit": "µg/mL"}, {"measurement": "MIC Comb", "setting": "Cne cells; combination CMN + Voriconazole, well D4", "result": 0.05, "unit": "µg/mL"}]}, {"compound": "C[C@@H]1[C@H](O)[C@@H](C)/C=C/C=C/C=C/C=C/C=C/C=C/C=C/[C@H](O[C@@H]2O[C@H](C)[C@@H](O)[C@H](N)[C@@H]2O)C[C@@H]2O[C@](O)(C[C@@H](O)C[C@@H](O)[C@H](O)CC[C@@H](O)C[C@@H](O)CC(=O)O[C@H]1C)C[C@H](O)[C@H]2C(=O)O", "note": "[Amphotericin B]", "values": [{"measurement": "MIC Comb", "setting": "Cne cells; combination CMN + Amphotericin B, well E6", "result": 0.14, "unit": "µg/mL"}, {"measurement": "MIC Alone", "setting": "Cne cells; [2]", "result": 0.6, "unit": "µg/mL"}]}, {"compound": "N.N.[Cl][Pt][Cl]", "note": "[cisplatin]", "values": [{"measurement": "IC50", "setting": "[1]", "result": 1410, "unit": "nM"}]}, {"compound": "CCC(C)n1ncn(-c2ccc(N3CCN(c4ccc(OCC5COC(Cn6cncn6)(c6ccc(Cl)cc6Cl)O5)cc4)CC3)cc2)c1=O", "note": "(stereo not drawn) [Itraconazole]", "values": [{"measurement": "MIC", "setting": "Cne cells; [2]", "result": 0.22, "unit": "µg/mL"}, {"measurement": "MIC Comb", "setting": "Cne cells; combination CMN + Itraconazole, well E4", "result": 0.22, "unit": "µg/mL"}]}, {"compound": "Nc1nc(=O)[nH]cc1F", "note": "[5-Fluorocytosine]", "values": [{"measurement": "MIC", "setting": "Cne cells; [2]", "result": 4.13, "unit": "µg/mL"}, {"measurement": "MIC Comb", "setting": "Cne cells; combination CMN + 5-Fluorocytosine, well D2", "result": 2.06, "unit": "µg/mL"}]}]}
